Experimental findings from patent US11358977B2, “Deuterated pyridone amides and prodrugs thereof as modulators of sodium channels” (VERTEX PHARMACEUTICALS INCORPORATED, priority 2017, dated 2022) are described below.

The experiment addresses T1, human NaV 1.8 (Homo sapiens, UniProt Q9Y5Y9).
T1 construct: expressed in transfected cells; host or cells: HEK cells, grown under blasticidin selection; KIR2.1 BacMam virus added before seeding
As to the kind of experiment: E-VIPR assay for NaV inhibition. The experiment is classed as cell-based. The conditions noted are these: HEK cells expressing human NaV 1.8, E-VIPR, normalised to positive control 25 μM. From the text:
Sodium ion channels are voltage-dependent proteins that can be activated by inducing membrane voltage changes by applying electric fields. […] The instrument comprises a microtiter plate handler, an optical system for exciting the coumarin dye while simultaneously recording the coumarin and oxonol emissions, a waveform generator, a current- or voltage-controlled amplifier, and parallel electrode pairs that are inserted into assay plate wells. Under integrated computer control, this instrument passes user-programmed electrical stimulus protocols to cells within the wells of the microtiter plate.
The solution was made by adding 10% Pluronic F127 stock equal to combined volumes of CC2-DMPE and DiSBAC6(3).
Then 25 μL per well from compound plate was transferred to each cell plate.
A pre-stimulus recording was performed for 0.5 seconds to obtain the un-stimulated intensities baseline. The stimulatory waveform was followed by 0.5 seconds of post-stimulation recording to examine the relaxation to the resting state.

T1 sequence (Q9Y5Y9 whole entry): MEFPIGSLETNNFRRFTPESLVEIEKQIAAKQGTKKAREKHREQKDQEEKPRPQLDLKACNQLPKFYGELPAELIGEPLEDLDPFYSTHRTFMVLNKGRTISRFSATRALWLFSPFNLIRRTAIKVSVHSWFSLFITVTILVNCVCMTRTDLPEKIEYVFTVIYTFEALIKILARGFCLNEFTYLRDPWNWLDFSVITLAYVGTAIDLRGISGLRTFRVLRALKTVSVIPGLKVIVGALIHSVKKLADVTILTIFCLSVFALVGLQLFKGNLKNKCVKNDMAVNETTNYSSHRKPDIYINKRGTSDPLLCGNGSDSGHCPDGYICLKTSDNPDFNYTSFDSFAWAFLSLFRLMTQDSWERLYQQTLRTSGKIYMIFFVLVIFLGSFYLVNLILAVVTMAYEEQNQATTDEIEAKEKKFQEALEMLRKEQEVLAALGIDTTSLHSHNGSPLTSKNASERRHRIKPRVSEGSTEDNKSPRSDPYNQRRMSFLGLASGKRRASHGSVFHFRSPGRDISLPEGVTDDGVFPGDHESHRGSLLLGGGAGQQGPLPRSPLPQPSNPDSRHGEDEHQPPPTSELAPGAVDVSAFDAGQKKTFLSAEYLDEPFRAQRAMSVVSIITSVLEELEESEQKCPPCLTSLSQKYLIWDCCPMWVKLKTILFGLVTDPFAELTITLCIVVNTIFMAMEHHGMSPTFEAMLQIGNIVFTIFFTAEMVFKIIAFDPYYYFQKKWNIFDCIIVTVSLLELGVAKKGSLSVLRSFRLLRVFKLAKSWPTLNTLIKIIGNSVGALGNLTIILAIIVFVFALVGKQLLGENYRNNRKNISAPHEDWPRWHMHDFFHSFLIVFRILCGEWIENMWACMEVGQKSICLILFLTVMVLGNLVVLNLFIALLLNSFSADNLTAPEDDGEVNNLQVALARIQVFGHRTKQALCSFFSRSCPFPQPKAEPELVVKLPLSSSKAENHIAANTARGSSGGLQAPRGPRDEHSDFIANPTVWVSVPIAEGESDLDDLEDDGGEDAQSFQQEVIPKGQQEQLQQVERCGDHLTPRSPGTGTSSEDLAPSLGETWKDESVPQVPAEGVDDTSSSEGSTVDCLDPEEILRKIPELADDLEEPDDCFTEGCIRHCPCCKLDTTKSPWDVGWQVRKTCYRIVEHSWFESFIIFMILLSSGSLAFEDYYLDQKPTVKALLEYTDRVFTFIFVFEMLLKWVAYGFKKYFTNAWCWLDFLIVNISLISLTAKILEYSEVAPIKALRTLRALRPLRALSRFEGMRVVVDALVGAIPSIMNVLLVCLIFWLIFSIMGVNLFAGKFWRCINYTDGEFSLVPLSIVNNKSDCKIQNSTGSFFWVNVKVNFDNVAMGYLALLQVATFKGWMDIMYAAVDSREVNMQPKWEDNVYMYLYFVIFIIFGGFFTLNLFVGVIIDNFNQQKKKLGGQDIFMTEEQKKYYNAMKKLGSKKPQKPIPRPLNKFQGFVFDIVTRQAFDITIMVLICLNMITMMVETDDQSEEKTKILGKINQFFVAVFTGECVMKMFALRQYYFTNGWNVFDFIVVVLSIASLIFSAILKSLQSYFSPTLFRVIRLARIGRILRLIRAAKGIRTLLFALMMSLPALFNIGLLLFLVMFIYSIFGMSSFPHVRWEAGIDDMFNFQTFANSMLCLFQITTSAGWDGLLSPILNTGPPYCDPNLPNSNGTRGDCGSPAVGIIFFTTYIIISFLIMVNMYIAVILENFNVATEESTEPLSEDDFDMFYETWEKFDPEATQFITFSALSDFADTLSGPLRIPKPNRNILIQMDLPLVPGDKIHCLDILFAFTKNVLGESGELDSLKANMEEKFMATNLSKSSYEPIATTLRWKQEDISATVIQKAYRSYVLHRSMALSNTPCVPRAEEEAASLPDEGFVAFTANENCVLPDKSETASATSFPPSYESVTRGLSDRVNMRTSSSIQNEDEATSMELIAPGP

As to `[2H]C([2H])([2H])c1cc(F)ccc1Oc1cc(C(F)(F)F)ccc1C(=O)Nc1cc[nH]c(=O)c1` [Compound 7, 2-(4-fluoro-2-(methyl-d3)phenoxy)-N-(2-oxo-1,2-dihydropyridin-4-yl)-4-(trifluoromethyl)benzamide], the “Nav1.8 Max % Activity” value was found to be 98%.
